Assay results as given in article PMC10287695, “Non-covalent inhibitors of thioredoxin glutathione reductase with schistosomicidal activity in vivo” (Nature Communications, 2023).

Target: T1, Human TrxR1 (Homo sapiens, UniProt Q16881)
T1 construct: made in house
T1 sequence (Q16881 1-499 isoform Q16881-5): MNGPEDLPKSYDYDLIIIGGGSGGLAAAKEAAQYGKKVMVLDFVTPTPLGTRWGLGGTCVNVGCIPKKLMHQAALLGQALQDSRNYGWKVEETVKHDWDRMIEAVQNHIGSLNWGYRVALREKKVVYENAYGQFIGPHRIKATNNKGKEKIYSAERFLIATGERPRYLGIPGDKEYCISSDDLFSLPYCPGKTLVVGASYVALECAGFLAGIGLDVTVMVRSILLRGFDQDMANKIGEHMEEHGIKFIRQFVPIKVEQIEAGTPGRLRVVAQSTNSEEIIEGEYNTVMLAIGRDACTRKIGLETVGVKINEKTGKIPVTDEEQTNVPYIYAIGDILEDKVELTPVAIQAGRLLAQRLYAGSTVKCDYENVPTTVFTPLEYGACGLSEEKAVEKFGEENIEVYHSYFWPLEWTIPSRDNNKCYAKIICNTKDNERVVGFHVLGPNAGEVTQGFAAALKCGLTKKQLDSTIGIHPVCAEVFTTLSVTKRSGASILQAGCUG
Assay: Human TrxR1 enzyme inhibition (DTNB reduction)
Assay type: biochemical
Conditions: 15 min preincubation (enzyme + 100 µM NADPH + compound); read-out: Human TrxR1 IC50
Method: Recombinant TGR, human TrxR1, B. malayi (Bm)TrxR and human GR proteins were expressed and purified as described[20],[69],[79]. The codon optimized sequence for P. falciparum (PfTrxR, https://www.ncbi.nlm.nih.gov/protein/CAA60574.1/) with an N-terminal 6-His tag was synthesized and inserted into pET15b (GenScript) and expressed in BL21 (DE3) cells and purified as described for human GR[20]. TGR and TrxR enzyme inhibition assays were performed in triplicate at 25 °C as described[20] in 0.1 M potassium phosphate (pH 7.4), 10 mM EDTA, 100 µM NADPH and 0.01% Tween-20. […] The reaction was started with addition of an equal volume of DTNB (6 mM) and NADPH (100 µM) and the increase in A412 during the first 3 min was recorded. […] The reaction was preincubated for 15 min. Activity was initiated with the addition of 1 mM GSSG and 100 μM NADPH and initial rates of NADPH oxidation were monitored at 340 nm. The reactions were done in triplicate. The IC50 was calculated in GraphPad Prism.

| SMILES | IC50 |
| --- | --- |
| C[C@@H]1[C@H]2C[C@@H](C[C@H]1NCc1nc3ccccc3n1C1CCCCCC1)C2(C)C [Compound 8] | 4.9 ± 1.72 µM |

Same assay, conditions: hsTrxR, 15 minutes pre-incubation, compound 2.5 µM

| SMILES | inhibition at 2.5 µM |
| --- | --- |
| C[C@@H]1[C@H]2C[C@@H](C[C@H]1NCc1nc3ccccc3n1C1CCCCCC1)C2(C)C [Compound 8] | 37.2% |

Same assay, conditions: hsTrxR, 15 minutes pre-incubation, compound 5 µM

| SMILES | inhibition at 5 µM |
| --- | --- |
| C[C@@H]1[C@H]2C[C@@H](C[C@H]1NCc1nc3ccccc3n1C1CCCCCC1)C2(C)C [Compound 8] | 49.7% |

Same assay, conditions: hsTrxR, 15 minutes pre-incubation, compound 10 µM

| SMILES | inhibition at 10 µM |
| --- | --- |
| C[C@@H]1[C@H]2C[C@@H](C[C@H]1NCc1nc3ccccc3n1C1CCCCCC1)C2(C)C [Compound 8] | 61.6% |

Target: T2, Human GR (Homo sapiens, UniProt P00390)
T2 construct: made in house
T2 sequence (P00390 44-522): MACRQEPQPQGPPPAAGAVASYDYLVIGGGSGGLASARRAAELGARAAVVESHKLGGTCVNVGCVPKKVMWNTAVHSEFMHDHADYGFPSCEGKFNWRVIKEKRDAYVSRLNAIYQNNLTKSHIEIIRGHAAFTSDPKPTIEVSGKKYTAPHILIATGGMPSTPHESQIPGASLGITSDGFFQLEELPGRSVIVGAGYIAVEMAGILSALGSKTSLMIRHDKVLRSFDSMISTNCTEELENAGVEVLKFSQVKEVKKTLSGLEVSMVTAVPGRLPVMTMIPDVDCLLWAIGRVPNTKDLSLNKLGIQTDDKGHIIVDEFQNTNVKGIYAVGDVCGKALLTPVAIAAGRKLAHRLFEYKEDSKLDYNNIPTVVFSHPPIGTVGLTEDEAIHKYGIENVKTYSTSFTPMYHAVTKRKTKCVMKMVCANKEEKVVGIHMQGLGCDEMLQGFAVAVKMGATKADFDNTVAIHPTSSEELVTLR
Assay: Human GR enzyme inhibition (GSSG reduction, NADPH oxidation)
Assay type: biochemical
Conditions: 66.7 µM

| SMILES | Human GR (inhibition at 66.7 µM) |
| --- | --- |
| C[C@@H]1[C@H]2C[C@@H](C[C@H]1NCc1nc3ccccc3n1C1CCCCCC1)C2(C)C [Compound 8] | n.i. |

Same assay, conditions: hGR, 15 minutes pre-incubation, compound 5 µM

| SMILES | inhibition at 5 µM |
| --- | --- |
| C[C@@H]1[C@H]2C[C@@H](C[C@H]1NCc1nc3ccccc3n1C1CCCCCC1)C2(C)C [Compound 8] | -0.362% |

Same assay, conditions: hGR, 15 minutes pre-incubation, compound 15 µM; read-out: % inhibition

| SMILES | inhibition at 15 µM |
| --- | --- |
| C[C@@H]1[C@H]2C[C@@H](C[C@H]1NCc1nc3ccccc3n1C1CCCCCC1)C2(C)C [Compound 8] | -0.934% |

Same assay, conditions: hGR, 15 minutes pre-incubation, compound 30 µM; read-out: % inhibition

| SMILES | inhibition at 30 µM |
| --- | --- |
| C[C@@H]1[C@H]2C[C@@H](C[C@H]1NCc1nc3ccccc3n1C1CCCCCC1)C2(C)C [Compound 8] | -0.111% |

Same assay, conditions: hGR, 15 minutes pre-incubation, compound 66.7 µM; read-out: % inhibition

| SMILES | inhibition at 66.7 µM |
| --- | --- |
| C[C@@H]1[C@H]2C[C@@H](C[C@H]1NCc1nc3ccccc3n1C1CCCCCC1)C2(C)C [Compound 8] | -0.91% |

Same assay, conditions: hGR, 6 hours pre-incubation, compound 5 µM

| SMILES | inhibition at 5 µM |
| --- | --- |
| C[C@@H]1[C@H]2C[C@@H](C[C@H]1NCc1nc3ccccc3n1C1CCCCCC1)C2(C)C [Compound 8] | -1.4% |

Same assay, conditions: hGR, 6 hours pre-incubation, compound 15 µM; read-out: % inhibition

| SMILES | inhibition at 15 µM |
| --- | --- |
| C[C@@H]1[C@H]2C[C@@H](C[C@H]1NCc1nc3ccccc3n1C1CCCCCC1)C2(C)C [Compound 8] | -4.52% |

Same assay, conditions: hGR, 6 hours pre-incubation, compound 30 µM; read-out: % inhibition

| SMILES | inhibition at 30 µM |
| --- | --- |
| C[C@@H]1[C@H]2C[C@@H](C[C@H]1NCc1nc3ccccc3n1C1CCCCCC1)C2(C)C [Compound 8] | -1.03% |

Same assay, conditions: hGR, 6 hours pre-incubation, compound 66.7 µM; read-out: % inhibition

| SMILES | inhibition at 66.7 µM |
| --- | --- |
| C[C@@H]1[C@H]2C[C@@H](C[C@H]1NCc1nc3ccccc3n1C1CCCCCC1)C2(C)C [Compound 8] | 9.42% |

Tested on: S. mansoni adult worms
Assay: GSH/GSSG ratio in ex vivo adult worms
Assay type: cell-based
Conditions: 1 hr; third data set
Method: We assessed GSH/GSSG levels experimentally by treating S. mansoni adult worms with 50 µM of compounds, or respective controls 5 µM Auranofin, 50 µM PZQ or 50 µM MZM and 0.01% DMSO for 3 h. Worm homogenate was prepared by washing three times with PBS to remove residual compounds and ten volumes of ice cold 5% sulfosalicylic acid was added. Worms were manually homogenized on ice using VWR Pellet Mixer Adaptor. The worm suspension was centrifuged at 14000 × g, 4 °C for 10 min and the acid supernatants transferred. An equal volume of ice-cold neutralization buffer (500 mM HEPES, pH 8.0) was added to the acid supernatants.
GSH/GSSG assay was performed by diluting the acid supernatant (5-fold) with ice-cold dilution buffer (250 mM HEPES, pH 7.5). Using white opaque luminescence plate on ice, 25 µl of the diluted worm acid supernatant was added each well in triplicates. Total glutathione lysis reagent and GSSG lysis reagent, which contains alkylating agent N-ethylmaleimide (25 mM) were prepared following manufactures protocol and added to respective wells along with blank for background. Total glutathione lysis reagent or oxidized glutathione lysis reagent (25 µl) was added to respective wells containing worm acid supernatants and the plate was shaken for 5 min. Luciferin generation reagent (LGR) (50 µl) was added to all wells, briefly shaken and incubated at room temperature for 30 min. Luciferin detection reagent (LDR) (100 µl) was added to all wells, briefly shaken and incubated for 15 min at room temperature and the luminescence measured using microplate imager (BioTek Cytation3). GSH/GSSH ratio for DMSO control and compounds were calculated using (Net DMSO total glutathione RFU) – (Net DMSO GSSG RFU)/ (Net DMSO GSSG RFU)/2 and (Net inhibitor total glutathione RFU) – (Net inhibitor GSSG RFU)/ (Net inhibitor GSSG RFU)/2 respectively.

| SMILES | Reduction (%) in GSH/GSSG ratio |
| --- | --- |
| C[C@@H]1[C@H]2C[C@@H](C[C@H]1NCc1nc3ccccc3n1C1CCCCCC1)C2(C)C [Compound 8] | 13.1896% |

Same assay, conditions: 1 hr; third data set (r147-159), 0hr 72.45

| SMILES | Ratio GSH/GSSG |
| --- | --- |
| C[C@@H]1[C@H]2C[C@@H](C[C@H]1NCc1nc3ccccc3n1C1CCCCCC1)C2(C)C [Compound 8] | 62.89 |

Same assay, conditions: 1 hr; third data set (r147-159), 0hr = 100

| SMILES | % Ratio GSH/GSSG |
| --- | --- |
| C[C@@H]1[C@H]2C[C@@H](C[C@H]1NCc1nc3ccccc3n1C1CCCCCC1)C2(C)C [Compound 8] | 86.8104% |

Same assay, conditions: 1 hr; third data set, (values given as fraction)

| SMILES | Reduction (%) in GSH/GSSG ratio |
| --- | --- |
| C[C@@H]1[C@H]2C[C@@H](C[C@H]1NCc1nc3ccccc3n1C1CCCCCC1)C2(C)C [Compound 8] | 0.13% |

Same assay, conditions: 3 hr; third data set

| SMILES | Reduction (%) in GSH/GSSG ratio |
| --- | --- |
| C[C@@H]1[C@H]2C[C@@H](C[C@H]1NCc1nc3ccccc3n1C1CCCCCC1)C2(C)C [Compound 8] | 20.8885% |

Same assay, conditions: 3 hr; third data set (r147-159), 0hr 72.45

| SMILES | Ratio GSH/GSSG |
| --- | --- |
| C[C@@H]1[C@H]2C[C@@H](C[C@H]1NCc1nc3ccccc3n1C1CCCCCC1)C2(C)C [Compound 8] | 57.32 |

Same assay, conditions: 3 hr; third data set (r147-159), 0hr = 100

| SMILES | % Ratio GSH/GSSG |
| --- | --- |
| C[C@@H]1[C@H]2C[C@@H](C[C@H]1NCc1nc3ccccc3n1C1CCCCCC1)C2(C)C [Compound 8] | 79.1115% |

Same assay, conditions: 3 hr; third data set, (values given as fraction)

| SMILES | Reduction (%) in GSH/GSSG ratio |
| --- | --- |
| C[C@@H]1[C@H]2C[C@@H](C[C@H]1NCc1nc3ccccc3n1C1CCCCCC1)C2(C)C [Compound 8] | 0.21% |

Same assay, conditions: adult worms ex vivo, 1 hr

| SMILES | % Ratio GSH/GSSG |
| --- | --- |
| C[C@@H]1[C@H]2C[C@@H](C[C@H]1NCc1nc3ccccc3n1C1CCCCCC1)C2(C)C [Compound 8] | 52.2584% |

Same assay, conditions: adult worms ex vivo, 1 hr, relative to 0hr

| SMILES | Reduction (%) in GSH/GSSG ratio |
| --- | --- |
| C[C@@H]1[C@H]2C[C@@H](C[C@H]1NCc1nc3ccccc3n1C1CCCCCC1)C2(C)C [Compound 8] | 14.1592% |

Same assay, conditions: adult worms ex vivo, 1 hr, relative to 0hr, values given as fraction

| SMILES | Reduction (%) in GSH/GSSG ratio |
| --- | --- |
| C[C@@H]1[C@H]2C[C@@H](C[C@H]1NCc1nc3ccccc3n1C1CCCCCC1)C2(C)C [Compound 8] | 0.1416% |

Same assay, conditions: adult worms ex vivo, 3 hr

| SMILES | % Ratio GSH/GSSG |
| --- | --- |
| C[C@@H]1[C@H]2C[C@@H](C[C@H]1NCc1nc3ccccc3n1C1CCCCCC1)C2(C)C [Compound 8] | 52.8952% |

Same assay, conditions: adult worms ex vivo, 3 hr, relative to 0hr, values given as fraction

| SMILES | Reduction (%) in GSH/GSSG ratio |
| --- | --- |
| C[C@@H]1[C@H]2C[C@@H](C[C@H]1NCc1nc3ccccc3n1C1CCCCCC1)C2(C)C [Compound 8] | 0.2338% |

Same assay, conditions: adult worms, 3 h exposure to compounds at 50 μM

| SMILES | Decrease (%) in GSH/GSSG ratio |
| --- | --- |
| C[C@@H]1[C@H]2C[C@@H](C[C@H]1NCc1nc3ccccc3n1C1CCCCCC1)C2(C)C [Compound 8] | 20% |
